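1) Cells in 96-well plates. 2) Compound, 48 h, 5 concentrations. 3) Linear interpolation between surrounding doses. 4) Unreached endpoint = highest concentration. The concentration for 50% growth inhibition is given as GI50.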 Calls of active or inactive are those of the source. No stated cut-off is given here; in the data, active = GI50 up to about 1.1 µM and inactive = higher.
Legend:
Assay in all cases: DTP human tumour cell line panel, 48 h
786-0 = test system: 786-0
A549 = test system: A549
CAKI-1 = test system: CAKI-1
EKVX = test system: EKVX
HOP-92 = test system: HOP-92
KM12 = test system: KM12
LOX IMVI = test system: LOX IMVI
M14 = test system: M14
Malme-3M = test system: Malme-3M
OVCAR-3 = test system: OVCAR-3
SF-295 = test system: SF-295
SNB-75 = test system: SNB-75
UACC-257 = test system: UACC-257
HOP-62 = test system: HOP-62
SR = test system: SR

Structure (SMILES)	GI50 (786-0)	GI50 (A549)	GI50 (CAKI-1)	GI50 (EKVX)	GI50 (HOP-92)	GI50 (KM12)	GI50 (LOX IMVI)	GI50 (M14)	GI50 (Malme-3M)	GI50 (OVCAR-3)	GI50 (SF-295)	GI50 (SNB-75)	GI50 (UACC-257)	GI50 (HOP-62)	GI50 (SR)
COc1cc2c(cc1OC)c1c(OC)c(OC)cc3c1c1c2sc(=S)n1CC3	18.1 µM (inactive)	> 100 µM (inactive)	> 100 µM (inactive)	> 100 µM (inactive)	> 100 µM (inactive)	55.8 µM (inactive)	31.5 µM (inactive)	18.4 µM (inactive)	86.3 µM (inactive)	55.5 µM (inactive)	> 100 µM (inactive)	74.6 µM (inactive)	> 100 µM (inactive)	–	–
COC(=O)C(/C(=N\O)C(=O)Nc1ccc(Br)cc1)c1nc2ccccc2nc1O (centres undefined)	31 µM (inactive)	> 100 µM (inactive)	> 100 µM (inactive)	67.3 µM (inactive)	35.4 µM (inactive)	> 100 µM (inactive)	22.7 µM (inactive)	58.9 µM (inactive)	45.1 µM (inactive)	23.1 µM (inactive)	> 100 µM (inactive)	23.6 µM (inactive)	> 100 µM (inactive)	28.4 µM (inactive)	18.2 µM (inactive)
COc1ccc(/C=C2\CCC(C)(CN(C)C)C2=O)cc1OC (centres undefined)	> 100 µM (inactive)	> 100 µM (inactive)	> 100 µM (inactive)	32.8 µM (inactive)	> 100 µM (inactive)	> 100 µM (inactive)	> 100 µM (inactive)	> 100 µM (inactive)	> 100 µM (inactive)	> 100 µM (inactive)	> 100 µM (inactive)	> 100 µM (inactive)	> 100 µM (inactive)	> 100 µM (inactive)	–
CC(=O)Oc1cc2c(cc1OC(C)=O)C1(C)CCC2(C)c2cc(OC(C)=O)c(OC(C)=O)cc21	15 µM (inactive)	34 µM (inactive)	8.55 µM (inactive)	35.8 µM (inactive)	6.9 µM (inactive)	11.6 µM (inactive)	12.6 µM (inactive)	18.3 µM (inactive)	13 µM (inactive)	10.2 µM (inactive)	24.5 µM (inactive)	4.92 µM (inactive)	11.3 µM (inactive)	21.6 µM (inactive)	–
CC(=O)OC1COC(N2C(=O)/C(=N\Nc3ccc([N+](=O)[O-])cc3)c3cc(Br)c([N+](=O)[O-])cc32)C(OC(C)=O)C1OC(C)=O (centres undefined)	42 µM (inactive)	> 100 µM (inactive)	50.4 µM (inactive)	62.7 µM (inactive)	8.26 µM (inactive)	27.9 µM (inactive)	51.1 µM (inactive)	55.8 µM (inactive)	> 100 µM (inactive)	> 100 µM (inactive)	21.4 µM (inactive)	–	> 100 µM (inactive)	38.5 µM (inactive)	98.9 µM (inactive)
COc1cccc(/C=C2\CCC(CCN(C)C)(C3=CCCC3)C2=O)c1 (centres undefined)	14.7 µM (inactive)	16.1 µM (inactive)	12.3 µM (inactive)	–	12.3 µM (inactive)	17.2 µM (inactive)	15.6 µM (inactive)	14.4 µM (inactive)	15.6 µM (inactive)	17.3 µM (inactive)	17 µM (inactive)	15.9 µM (inactive)	15.5 µM (inactive)	17.2 µM (inactive)	35.5 µM (inactive)
CN(N=O)C(=O)N(N)CCCCC(NC(=O)OCc1ccccc1)C(=O)OCc1ccccc1 (centres undefined)	18.5 µM (inactive)	81.8 µM (inactive)	25.6 µM (inactive)	> 100 µM (inactive)	10.7 µM (inactive)	38.8 µM (inactive)	17.9 µM (inactive)	23 µM (inactive)	40.1 µM (inactive)	23.1 µM (inactive)	75.9 µM (inactive)	20.6 µM (inactive)	18.7 µM (inactive)	9.75 µM (inactive)	–
CCC(=O)C12OC3OC(C)(C)OC3C1OC(C)(C)O2 (centres undefined)	> 100 µM (inactive)	> 100 µM (inactive)	> 100 µM (inactive)	> 100 µM (inactive)	> 100 µM (inactive)	> 100 µM (inactive)	–	> 100 µM (inactive)	9.44 µM (inactive)	> 100 µM (inactive)	> 100 µM (inactive)	> 100 µM (inactive)	> 100 µM (inactive)	> 100 µM (inactive)	> 100 µM (inactive)
CC(C)N1CN(C(C(=O)N[C@@H]2C(=O)N3C2SC(C)(C)C3C(=O)O)c2ccccc2)CSC1=S (some centres undefined)	> 100 µM (inactive)	–	> 100 µM (inactive)	> 100 µM (inactive)	> 100 µM (inactive)	> 100 µM (inactive)	83.9 µM (inactive)	> 100 µM (inactive)	> 100 µM (inactive)	> 100 µM (inactive)	> 100 µM (inactive)	> 100 µM (inactive)	> 100 µM (inactive)	> 100 µM (inactive)	–
COc1ccc(NC(=O)c2cc(OC)c(OC)c(OC)c2)cc1	> 81.8 µM (inactive)	62.1 µM (inactive)	66.4 µM (inactive)	> 69.2 µM (inactive)	> 100 µM (inactive)	22.8 µM (inactive)	60.3 µM (inactive)	88.1 µM (inactive)	41.6 µM (inactive)	39.1 µM (inactive)	36.1 µM (inactive)	42.2 µM (inactive)	42.8 µM (inactive)	33 µM (inactive)	–
CN1CCN(CN2C(=O)C3C4C=CC(C3C2=O)C2C3C(=O)N(CN5CCN(C)CC5)C(=O)C3C42)CC1 (centres undefined)	18.2 µM (inactive)	32.4 µM (inactive)	–	–	–	20.1 µM (inactive)	17.9 µM (inactive)	16.4 µM (inactive)	–	21.4 µM (inactive)	–	27.4 µM (inactive)	–	70 µM (inactive)	16.4 µM (inactive)
C[P+](C)(CC(F)(F)F)c1ccccc1	> 100 µM (inactive)	> 100 µM (inactive)	–	> 100 µM (inactive)	–	> 100 µM (inactive)	> 100 µM (inactive)	> 100 µM (inactive)	> 100 µM (inactive)	> 100 µM (inactive)	> 100 µM (inactive)	> 100 µM (inactive)	> 100 µM (inactive)	> 100 µM (inactive)	> 100 µM (inactive)
O=C1CCCC1NC(=O)C(F)(F)F (centres undefined)	> 100 µM (inactive)	> 100 µM (inactive)	> 100 µM (inactive)	> 100 µM (inactive)	> 100 µM (inactive)	> 100 µM (inactive)	–	> 100 µM (inactive)	0.182 µM (active)	> 100 µM (inactive)	> 100 µM (inactive)	> 100 µM (inactive)	> 100 µM (inactive)	> 100 µM (inactive)	–
CNC(=O)CN(CC(=O)O)C(=O)NC	> 100 µM (inactive)	> 100 µM (inactive)	> 100 µM (inactive)	> 100 µM (inactive)	> 100 µM (inactive)	> 100 µM (inactive)	> 100 µM (inactive)	> 100 µM (inactive)	> 100 µM (inactive)	> 100 µM (inactive)	> 100 µM (inactive)	> 100 µM (inactive)	> 100 µM (inactive)	> 100 µM (inactive)	> 100 µM (inactive)
C#CC1/C(=C\C(=O)OC)CCCC1O (centres undefined)	> 100 µM (inactive)	> 100 µM (inactive)	> 100 µM (inactive)	> 100 µM (inactive)	> 100 µM (inactive)	> 100 µM (inactive)	–	> 100 µM (inactive)	> 100 µM (inactive)	> 100 µM (inactive)	> 100 µM (inactive)	> 100 µM (inactive)	> 100 µM (inactive)	> 100 µM (inactive)	> 100 µM (inactive)
O=C(O)CN(c1ccccc1)S(=O)(=O)c1ccccc1[N+](=O)[O-]	> 100 µM (inactive)	> 100 µM (inactive)	> 100 µM (inactive)	> 100 µM (inactive)	> 100 µM (inactive)	> 100 µM (inactive)	> 100 µM (inactive)	> 100 µM (inactive)	> 100 µM (inactive)	> 100 µM (inactive)	> 100 µM (inactive)	> 100 µM (inactive)	> 100 µM (inactive)	–	–
COc1ccc2n[se]nc2c1	48.3 µM (inactive)	45.5 µM (inactive)	> 100 µM (inactive)	> 100 µM (inactive)	–	56.4 µM (inactive)	> 100 µM (inactive)	> 100 µM (inactive)	65.8 µM (inactive)	–	32 µM (inactive)	64.1 µM (inactive)	54.6 µM (inactive)	–	–
COc1cc(OC)c2c(=O)c3c([N+](=O)[O-])cccc3n(C)c2c1	> 100 µM (inactive)	> 100 µM (inactive)	> 100 µM (inactive)	> 100 µM (inactive)	> 100 µM (inactive)	> 100 µM (inactive)	> 100 µM (inactive)	> 100 µM (inactive)	> 100 µM (inactive)	> 100 µM (inactive)	> 100 µM (inactive)	> 100 µM (inactive)	> 100 µM (inactive)	> 100 µM (inactive)	> 100 µM (inactive)
COc1ccc(C2C(Cl)C(=O)N2n2cnc3ccccc3c2=O)cc1OC (centres undefined)	> 100 µM (inactive)	> 100 µM (inactive)	> 100 µM (inactive)	> 100 µM (inactive)	–	> 100 µM (inactive)	> 100 µM (inactive)	> 100 µM (inactive)	> 100 µM (inactive)	44.6 µM (inactive)	> 100 µM (inactive)	21.5 µM (inactive)	32 µM (inactive)	> 100 µM (inactive)	38.7 µM (inactive)
OC(c1ccccc1)(c1ccccc1)c1cccnc1	> 100 µM (inactive)	> 100 µM (inactive)	> 100 µM (inactive)	> 100 µM (inactive)	–	> 100 µM (inactive)	> 100 µM (inactive)	> 100 µM (inactive)	> 100 µM (inactive)	> 100 µM (inactive)	> 100 µM (inactive)	86.1 µM (inactive)	> 100 µM (inactive)	> 100 µM (inactive)	–
